From US10626136B2, “Compositions and methods for improving Rebaudioside X solubility” (The Coca-Cola Company, priority 2012, dated 2020) come the findings set out here.

What all share (format): physicochemical
Data set [1] is described as follows: Approximate water solubility by solvent addition method (aliquots of water, visual inspection). The method, then:
The approximate aqueous solubility can be determined by a solvent addition method in which a weighed sample is treated with aliquots of water. The mixture is generally vortexed and/or sonicated between additions to facilitate dissolution. Complete dissolution of the test material is determined by visual inspection. Solubility is estimated based on the total solvent used to provide complete dissolution.
The approximate water solubility of Form A and amorphous Rebaudioside X were determined by a solvent addition method in which a weighed sample was treated with aliquots of water. The mixture was generally vortexed and/or sonicated between additions to facilitate dissolution. Complete dissolution of the test material was determined by visual inspection. Solubility was estimated based on the total solvent used to provide complete dissolution. The actual solubility may be greater than the value calculated because of the use of solvent aliquots that were too large or due to a slow rate of dissolution.
The approximate solubility of the complexes was measured by a solvent addition method in which a weighed sample was treated with aliquots of water. The mixture was generally vortexed and/or sonicated between additions to facilitate dissolution. Complete dissolution of the test material was determined by visual inspection. Solubility was estimated based on the total solvent used to provide complete dissolution. The actual solubility may be greater than the value calculated because of the use of solvent aliquots that were too large or due to a slow rate of dissolution.

The nature of data set [2]: Water solubility of material before and after the water process (Example 4). The following applies: Example 4, before and after heating to 121° C. in water and spray drying.
A short description of data set [3]: Duration of clarity of aqueous solutions, with or without filtration. The text has this:
The water solubility of amorphous Rebaudioside X prepared according to Example 4 was compared in various test material/water ratios with or without filtration prior to solubility determination. Generally, filtration performed after dissolution of sample assist the duration of clarity of the sample (or delays the precipitation/recrystallization of sample).

The nature of data set [4]: Dynamic Vapor Sorption (DVS). As for the experimental part: The Dynamic Vapor Sorption (DVS) DVS data were collected on a VTI SGA-100 Vapor Sorption Analyzer. NaCl and PVP were used as calibration standards. The sample was not dried prior to analysis. Sorption and desorption data were collected over a range from 5 to 95% RH at 10% RH increments under a nitrogen purge. The equilibrium criterion used for analysis was less than 0.0100% weight change in 5 minutes with a maximum equilibration time of 3 hours. Data were not corrected for the initial moisture content of the samples.

Data set [5] can be described thus: Equilibrium solubility in water by UV (205 nm). As for the experimental part:
Samples were analyzed with a Cary 50 UV-Vis dual beam spectrophotometer. The detector was zeroed with a cuvette filled with water prior to sample analysis. Samples were analyzed at room temperature in 1.0 cm quartz cuvette using a scan rate of 600 nm/min in a range of 200-400 nm.
25.8 mg of amorphous Rebaudioside X was added to a 10-mL volumetric flask and dissolved 10 mL with water. This stock solution was diluted to five concentration levels for UV measurement.
A calibration curve at 205 nm was established (Abs at 205 nm vs. concentration) to provide the equation y=5.0625x+0.0022. R^2 was 0.9999. This equation was used for the subsequent determination of Rebaudioside X concentrations.
250 mg of amorphous Rebaudioside X was added to an amber vial and 10 mL of water was added. The mixture was stirred at room temperature about 10 minutes to yield a transparent solution with only small amount of solid remaining. The mixture became opaque rapidly. The mixture was placed on a mechanical oscillator set at a speed of 250 and 25° C. At the sampling time point of 1, 16, 24, 48, 72, 96, and 192 hours, an aliquot of the slurry was transferred to a centrifuge tube and separated at a speed of 16K rcf for 15 minutes. 200 μL of the clear supernatant was transferred to a 50-mL volumetric flask, 10 mL of water was added and mixed well before UV analysis.

As to `C=C1C[C@@]23CCC4[C@](C)(C(=O)OC5OC(CO)C(O)C(OC6OC(CO)C(O)C(O)C6O)C5OC5OC(CO)C(O)C(O)C5O)CCC[C@@]4(C)[C@@H]2CCC1(OC1OC(CO)C(O)C(OC2OC(CO)C(O)C(O)C2O)C1OC1OC(CO)C(O)C(O)C1O)C3` (stereo partly drawn) [Amorphous (ethanol process)], in data set [1], the “Approximate Water Solubility” value is above 10000 µg/mL.
On the same count and under the same terms, as for `C=C1C[C@@]23CCC4[C@](C)(C(=O)OC5OC(CO)C(O)C(OC6OC(CO)C(O)C(O)C6O)C5OC5OC(CO)C(O)C(O)C5O)CCC[C@@]4(C)[C@@H]2CCC1(OC1OC(CO)C(O)C(OC2OC(CO)C(O)C(O)C2O)C1OC1OC(CO)C(O)C(O)C1O)C3` (stereo partly drawn) [Amorphous (water process)], the figure is above 10000 µg/mL.
With `C=C1C[C@@]23CCC4[C@](C)(C(=O)OC5OC(CO)C(O)C(OC6OC(CO)C(O)C(O)C6O)C5OC5OC(CO)C(O)C(O)C5O)CCC[C@@]4(C)[C@@H]2CCC1(OC1OC(CO)C(O)C(OC2OC(CO)C(O)C(O)C2O)C1OC1OC(CO)C(O)C(O)C1O)C3` (stereo partly drawn) [Form A], in data set [1], the “Approximate Water Solubility” value came out at 1400 µg/mL and the approximate aqueous solubility was 0.1 to about 0.14. In addition, in data set [2] (listed as Form A Rebaudioside X), the water solubility stood at 0.05%.
Regarding `C=C1C[C@@]23CC[C@H]4[C@@](C)(CCC[C@@]4(C)C(=O)O[C@@H]4O[C@H](CO)[C@@H](O)[C@H](O[C@@H]5O[C@H](CO)[C@@H](O)[C@H](O)[C@H]5O)[C@H]4O[C@@H]4O[C@H](CO)[C@@H](O)[C@H](O)[C@H]4O)[C@@H]2CC[C@]1(O[C@@H]1O[C@H](CO)[C@@H](O)[C@H](O[C@@H]2O[C@H](CO)[C@@H](O)[C@H](O)[C@H]2O)[C@H]1O[C@@H]1O[C@H](CO)[C@@H](O)[C@H](O)[C@H]1O)C3` [amorphous Rebaudioside X], the approximate aqueous solubility result in data set [1] is “greater than 0.3%”. Further, the “approximate water solubility compared to Form A Rebaudioside X” value in data set [1] is reported as “substantially increased”. For the same compound, the “Duration of Clarity of Sample” value is above 60 days in data set [3] (Sample 1: 250 mg/500 mL water, not filtered); above 60 days in data set [3] (Sample 2: 500 mg/500 mL water, not filtered); “^bMost Rebaudioside X dissolved quickly. However, a small amount of floating particles remained” in data set [3] (Sample 4: 1000 mg/500 mL water, not filtered); around 0.12 days in data set [3] (Sample 6: 1750 mg/500 mL water, not filtered); around 0.083 days in data set [3] (Sample 8: 1000 mg/100 mL water, filtered (0.22 μm membrane)). The “solids recovered after DVS” value in data set [4] (XRPD after the DVS analysis) is given as “x-ray amorphous”. For the same compound, in data set [4] (desorption from 95% to 5% RH), the “weight loss upon desorption” value is 26.0 wt %. The “weight loss upon equilibration” value in data set [4] (equilibration at 5% RH) is 3.1 wt %. Besides, the “weight gain on sorption” value in data set [4] (increasing the relative humidity from 5% to 95% RH) was determined as 26.3 wt %. In addition, in data set [4] (judged from the large weight change), the hygroscopicity entry is “hygroscopic”. Moreover, the water solubility result in data set [2] was “greater than 1%”. The “Average Sample Concentration” value in data set [5] (250 mg in 10 mL water, 25° C.) is recorded as “Average Sample Concentration = 2.6 mg/mL”. Also, the “Original Sample Concentration” value in data set [5] (250 mg in 10 mL water, 25° C., sampling time 1 hrs) came to 5.8 mg/mL; in data set [5] (250 mg in 10 mL water, 25° C., sampling time 16 hrs), 2.7 mg/mL; in data set [5] (250 mg in 10 mL water, 25° C., sampling time 24 hrs), 2.6 mg/mL; in data set [5] (250 mg in 10 mL water, 25° C., sampling time 48 hrs), 2.5 mg/mL; in data set [5] (250 mg in 10 mL water, 25° C., sampling time 72 hrs), 2.8 mg/mL; in data set [5] (250 mg in 10 mL water, 25° C., sampling time 96 hrs), 2.8 mg/mL. In addition, the “Original Sample Concentration” value in data set [5] (250 mg in 10 mL water, 25° C., sampling time 192 hrs) was found to be 2.6 mg/mL. The “XRPD pattern of the solids recovered after solubility testing” value in data set [5] (after 8 days solubility testing in water) is listed as “consistent with Form A, indicating conversion”.
